Blank lines part the entries; values can stand above or below the compound they belong to.
What was measured:
[1] = Stability at processing temperatures in the hot melt procedure; type: physicochemical; conditions: processing temperatures up to 200° C.
From the text: In a hot melt procedure the polymers and any auxiliary agents are thermally melted and mixed without the use of any solvents and the meltings spread out on foil. The active ingredient is normally introduced directly into the liquid melt. […] The dynamic viscosity may be determined in the process as described in U.S. Pat. No. 5,328,696.
An alternative procedure that dispenses with the use of organic solvents is the hot melt procedure. In this procedure the polymer or the contact adhesive are melted at temperatures between 70 and 200° C., preferably between 90 and 160° C. and especially preferably between 100 and 150° C. and the active ingredient introduced into the homogenized matrix melt. After a brief homogenization the adhesive matrix that contains the active ingredient is cooled again so that the active ingredient is exposed to a thermal load in general for less than 5 minutes, if desired even for 4, 3, 2 or even for less than 1 minute. Following this the active ingredient is present in the solidified polymer melt. During the process the active ingredient is broadly shielded from critical environmental influences (light, oxygen).

[2] = Stabilization of fesoterodine in various matrices during storage (drop in concentration); type: physicochemical; conditions: storage for 6 months at 5° C.
Method: While, for example, the free base of fesoterodine is decomposed as an oil after storage for 6 months at 5° C. to around 3-4% a drop in concentration cannot be established or can only be established essentially to a lesser extent when fesoterodine is incorporated in matrices, which contain polar components.

[3] = Flow of active ingredient in the mouse skin model (in-vitro flux, horizontal diffusion cell); type: in vitro ADME; conditions: salt introduced into the polymer layer, also with oleic acid etc. (Table 1)
Method: 3.1. Determination of the Flow of Active Ingredient in the Mouse Skin Model Belly and back skin in a thickness of approximately 120 to 150 μm was used in a horizontal diffusion cell for the flux measurements through mouse skin. Medium: phosphate buffer solution (0.066 molar) pH 6.2, 32° C. Release of the active ingredient was determined by HPLC.

[4] = Flow of active ingredient in the human skin model according to Tanojo (in-vitro flux); type: in vitro ADME; conditions: see Table 1
From the text: 3.2. Determination of the Flow of Active Ingredient in the Human Skin Model (a) experimental Design The determination of the fesoterodine flux through human skin was essentially performed as described in H. Tanojo et al, J. Control Rel. 45 (1997) 41-47, where instead of the silicone membrane a dialysis membrane was used [[…] Dialysemembran, type 10. 14, obtained from the company Dianorm, Munich, Germany, manufactured from neutral cellulose, exclusion size 5000 Da, thickness (dry): 25 μm; pretreatment in accordance with manufacturer information]. Human skin in a thickness of approximately 250 μm was obtained from the abdomen. A TTS with a surface of 2.545 cm^2 was applied on human skin of equal surface size, where the skin on the acceptor site lays on a […] membrane (FIG. 5). PBS (0.066 molar) was used as the acceptor phase at pH 6.2 and a temperature of 32±0.5° C. The experiments were performed over 72 hours with a 5 ml/hour flux, whereby samples were taken every 3 hours. At the times that the samples are taken, the releasing medium is replaced with fresh medium thermo stated at 32±0.5° C. and the amount of the released fesoterodine measured per HPLC. […]

- stability at hot melt processing temperatures (in words) [1]: surprisingly stable
- Decomposition of the free base stored as an oil [2]: 3-4%
SMILES: CC(C)C(=O)Oc1ccc(CO)cc1[C@H](CCN(C(C)C)C(C)C)c1ccccc1 [fesoterodine, (R)-2-[3-(1,1-diisopropylamino)-1-phenylpropyl]-4-(hydroxymethyl)phenyl isobutyrate]

SMILES: CC(C)C(=O)Oc1ccc(CO)cc1[C@H](CCN(C(C)C)C(C)C)c1ccccc1.O=C(O)/C=C/C(=O)O [fumarate salt from fesoterodine, (R)-2-[3-(1,1-diisopropylamino)-1-phenylpropyl]-4-(hydroxymethyl)phenyl isobutyrate hydrogen fumarate]
- flux rates (in words) [3]: flux rates not sufficient for transdermal treatment

SMILES: CC(C)N(CCC(c1ccccc1)c1cc(CO)ccc1O)C(C)C (stereo not shown) [2-[3-(1,1-diisopropylamino)-1-phenylpropyl]-4-(hydroxymethyl)phenol]
- rate of penetration through the human skin (in words) [4]: very low rate of penetration
